Measured values: ChEMBL document CHEMBL5465560, “Selectivity Literature for EUbOPEN Chemogenomic Library” (2024)

Tests used:
[1] = biological target: T1, Mitogen-activated protein kinase kinase kinase 13 (Homo sapiens) (UniProt O43283); test: Selectivity interaction (KinomeScan (DiscoverX)) EUB0000229b MAP3K13; settings: at 10 µM
T1 sequence (whole entry): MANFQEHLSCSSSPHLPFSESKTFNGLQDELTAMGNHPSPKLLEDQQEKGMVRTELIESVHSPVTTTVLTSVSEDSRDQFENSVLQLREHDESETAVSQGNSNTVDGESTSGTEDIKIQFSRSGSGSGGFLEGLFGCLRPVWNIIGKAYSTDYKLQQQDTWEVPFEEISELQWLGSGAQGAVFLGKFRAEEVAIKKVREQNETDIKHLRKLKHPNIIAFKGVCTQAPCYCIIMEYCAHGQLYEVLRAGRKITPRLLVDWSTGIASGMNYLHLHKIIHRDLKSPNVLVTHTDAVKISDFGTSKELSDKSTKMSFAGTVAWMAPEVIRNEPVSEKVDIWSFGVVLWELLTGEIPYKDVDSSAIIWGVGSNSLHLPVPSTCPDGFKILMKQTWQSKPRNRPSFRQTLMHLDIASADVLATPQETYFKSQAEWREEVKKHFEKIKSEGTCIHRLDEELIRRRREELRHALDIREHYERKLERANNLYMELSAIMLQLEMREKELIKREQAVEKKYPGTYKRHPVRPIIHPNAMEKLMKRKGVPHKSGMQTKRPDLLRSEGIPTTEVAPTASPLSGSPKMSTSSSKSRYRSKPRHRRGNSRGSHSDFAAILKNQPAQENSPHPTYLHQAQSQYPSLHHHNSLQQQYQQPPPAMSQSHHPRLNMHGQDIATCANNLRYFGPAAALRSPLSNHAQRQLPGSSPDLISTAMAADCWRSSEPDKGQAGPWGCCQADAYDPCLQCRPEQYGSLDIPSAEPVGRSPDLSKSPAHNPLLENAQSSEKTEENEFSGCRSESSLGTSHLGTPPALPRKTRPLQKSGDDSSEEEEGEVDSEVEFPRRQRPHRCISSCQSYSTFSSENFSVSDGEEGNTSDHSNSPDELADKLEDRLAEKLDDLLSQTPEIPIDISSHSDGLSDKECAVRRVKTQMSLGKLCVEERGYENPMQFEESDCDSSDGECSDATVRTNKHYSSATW

[2] = biological target: Protein arginine N-methyltransferase 3 (Homo sapiens, UniProt O60678); test: Selectivity interaction (Methyltransferase screen (radiometric assays, panel of 8 PRMTs, 21 protein lysine methyltransferases, 3 DNA methyltransferases, and one RNA methyltransferase)) EUB0000272b PRMT3
[3] = biological target: Serine/threonine-protein kinase Nek4 (Homo sapiens) (UniProt P51957); test: Selectivity interaction (KinomeScan (DiscoverX)) EUB0000666a NEK4; settings: at 10 µM
[4] = biological target: Serine/threonine-protein kinase 24 (Homo sapiens) (UniProt Q9Y6E0); test: Selectivity interaction (ProQinase) EUB0000171b STK24
[5] = biological target: T2, Serine/threonine-protein kinase 17B (Homo sapiens) (UniProt O94768); test: Selectivity interaction (KinomeScan (DiscoverX)) EUB0000618a STK17B; settings: at 10 µM
T2 sequence (whole entry): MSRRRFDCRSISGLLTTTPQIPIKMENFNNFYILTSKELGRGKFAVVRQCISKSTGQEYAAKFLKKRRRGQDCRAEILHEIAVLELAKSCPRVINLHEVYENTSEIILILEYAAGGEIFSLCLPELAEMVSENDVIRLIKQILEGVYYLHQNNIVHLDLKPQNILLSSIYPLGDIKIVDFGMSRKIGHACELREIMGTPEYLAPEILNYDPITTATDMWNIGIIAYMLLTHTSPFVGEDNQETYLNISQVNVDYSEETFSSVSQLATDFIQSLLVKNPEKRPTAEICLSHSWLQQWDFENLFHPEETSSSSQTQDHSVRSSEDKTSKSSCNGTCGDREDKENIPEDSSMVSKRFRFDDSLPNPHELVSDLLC

[6] = biological target: 5'-AMP-activated protein kinase catalytic subunit alpha-1 (Homo sapiens, UniProt Q13131); test: Selectivity interaction (ActivX KiNativ screen (kinase selectivity in THP-1 cell lysates)) EUB0000639a PRKAA1; type: subcellular; settings: lysate, at 0.04 µM
[7] = biological target: T3, Serine/threonine-protein kinase TAO3 (Homo sapiens) (UniProt Q9H2K8); test: Selectivity interaction (KinomeScan (DiscoverX)) EUB0000655a TAOK3; settings: at 10 µM
T3 sequence (whole entry): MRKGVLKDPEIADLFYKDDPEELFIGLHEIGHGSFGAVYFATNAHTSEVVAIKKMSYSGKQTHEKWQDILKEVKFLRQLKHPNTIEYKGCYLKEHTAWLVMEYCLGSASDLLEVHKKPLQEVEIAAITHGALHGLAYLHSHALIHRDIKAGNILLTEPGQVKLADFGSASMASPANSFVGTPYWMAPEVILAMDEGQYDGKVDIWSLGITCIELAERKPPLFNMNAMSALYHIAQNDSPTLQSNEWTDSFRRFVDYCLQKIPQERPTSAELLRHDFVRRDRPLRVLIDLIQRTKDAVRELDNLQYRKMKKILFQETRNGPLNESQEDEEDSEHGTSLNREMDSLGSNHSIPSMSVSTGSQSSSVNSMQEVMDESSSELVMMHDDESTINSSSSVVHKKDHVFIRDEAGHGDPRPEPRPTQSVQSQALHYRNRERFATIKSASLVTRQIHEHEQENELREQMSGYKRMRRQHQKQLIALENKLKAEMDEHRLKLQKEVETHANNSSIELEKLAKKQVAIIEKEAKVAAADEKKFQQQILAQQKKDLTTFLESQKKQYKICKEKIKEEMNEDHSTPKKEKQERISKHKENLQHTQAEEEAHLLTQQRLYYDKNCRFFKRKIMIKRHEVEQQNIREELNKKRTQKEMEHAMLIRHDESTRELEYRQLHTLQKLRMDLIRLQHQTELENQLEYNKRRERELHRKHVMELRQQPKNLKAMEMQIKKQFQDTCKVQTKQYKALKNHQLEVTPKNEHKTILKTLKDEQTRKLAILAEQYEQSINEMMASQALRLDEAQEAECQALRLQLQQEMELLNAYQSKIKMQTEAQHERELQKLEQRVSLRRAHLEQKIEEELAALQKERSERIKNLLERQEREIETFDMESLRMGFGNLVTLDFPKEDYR

Serine/threonine-protein kinase 24 (Homo sapiens), sequence (Q9Y6E0 whole entry, looked up): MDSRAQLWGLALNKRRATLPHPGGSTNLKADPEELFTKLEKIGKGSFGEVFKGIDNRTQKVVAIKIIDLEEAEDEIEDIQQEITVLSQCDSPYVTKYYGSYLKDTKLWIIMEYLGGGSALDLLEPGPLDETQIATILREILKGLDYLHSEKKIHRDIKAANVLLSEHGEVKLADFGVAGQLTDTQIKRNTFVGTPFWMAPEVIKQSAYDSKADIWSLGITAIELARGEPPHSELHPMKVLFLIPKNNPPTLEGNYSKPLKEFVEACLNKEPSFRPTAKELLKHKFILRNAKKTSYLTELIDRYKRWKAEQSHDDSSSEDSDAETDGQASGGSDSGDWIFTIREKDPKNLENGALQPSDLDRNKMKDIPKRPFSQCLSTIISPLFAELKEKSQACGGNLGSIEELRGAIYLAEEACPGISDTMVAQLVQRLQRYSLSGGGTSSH
Protein arginine N-methyltransferase 3, sequence (O60678 2-531 limits assumed): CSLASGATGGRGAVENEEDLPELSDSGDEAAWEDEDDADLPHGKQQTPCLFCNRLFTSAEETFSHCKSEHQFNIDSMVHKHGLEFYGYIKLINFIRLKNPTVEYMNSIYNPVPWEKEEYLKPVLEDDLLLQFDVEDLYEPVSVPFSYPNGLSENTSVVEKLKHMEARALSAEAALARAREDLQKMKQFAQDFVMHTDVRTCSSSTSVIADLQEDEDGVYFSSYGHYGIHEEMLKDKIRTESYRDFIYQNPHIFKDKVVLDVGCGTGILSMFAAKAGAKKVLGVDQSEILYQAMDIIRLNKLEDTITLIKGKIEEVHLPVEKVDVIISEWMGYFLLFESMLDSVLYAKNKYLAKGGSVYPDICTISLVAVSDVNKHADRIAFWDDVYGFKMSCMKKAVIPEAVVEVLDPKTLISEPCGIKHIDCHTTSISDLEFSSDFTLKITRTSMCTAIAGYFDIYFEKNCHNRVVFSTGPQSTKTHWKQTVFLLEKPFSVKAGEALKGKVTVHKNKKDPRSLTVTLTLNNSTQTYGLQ
Serine/threonine-protein kinase Nek4 (Homo sapiens), sequence (P51957 whole entry, looked up): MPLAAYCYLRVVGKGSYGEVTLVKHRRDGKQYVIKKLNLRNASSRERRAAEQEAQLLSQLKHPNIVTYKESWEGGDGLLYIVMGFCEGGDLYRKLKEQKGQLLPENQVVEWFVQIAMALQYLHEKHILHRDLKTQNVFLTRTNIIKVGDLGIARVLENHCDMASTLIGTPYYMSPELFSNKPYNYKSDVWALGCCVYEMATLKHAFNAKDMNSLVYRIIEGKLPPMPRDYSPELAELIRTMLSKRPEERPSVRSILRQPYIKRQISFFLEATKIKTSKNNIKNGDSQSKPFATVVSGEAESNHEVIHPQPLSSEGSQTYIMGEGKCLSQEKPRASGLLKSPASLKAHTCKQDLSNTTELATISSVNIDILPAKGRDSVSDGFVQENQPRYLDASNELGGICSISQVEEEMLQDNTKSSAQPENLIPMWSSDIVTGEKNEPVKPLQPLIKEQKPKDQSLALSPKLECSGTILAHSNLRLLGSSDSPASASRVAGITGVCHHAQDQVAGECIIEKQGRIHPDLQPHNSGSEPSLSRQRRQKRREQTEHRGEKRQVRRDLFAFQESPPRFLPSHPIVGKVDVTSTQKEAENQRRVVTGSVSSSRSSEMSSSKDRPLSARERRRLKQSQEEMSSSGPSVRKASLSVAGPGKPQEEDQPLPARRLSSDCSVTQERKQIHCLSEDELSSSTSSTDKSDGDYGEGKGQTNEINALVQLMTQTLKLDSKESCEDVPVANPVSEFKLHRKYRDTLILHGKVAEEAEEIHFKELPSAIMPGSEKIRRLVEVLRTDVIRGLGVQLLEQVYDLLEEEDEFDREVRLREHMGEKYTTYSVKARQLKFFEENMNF
5'-AMP-activated protein kinase catalytic subunit alpha-1, sequence (Q13131 whole entry, looked up): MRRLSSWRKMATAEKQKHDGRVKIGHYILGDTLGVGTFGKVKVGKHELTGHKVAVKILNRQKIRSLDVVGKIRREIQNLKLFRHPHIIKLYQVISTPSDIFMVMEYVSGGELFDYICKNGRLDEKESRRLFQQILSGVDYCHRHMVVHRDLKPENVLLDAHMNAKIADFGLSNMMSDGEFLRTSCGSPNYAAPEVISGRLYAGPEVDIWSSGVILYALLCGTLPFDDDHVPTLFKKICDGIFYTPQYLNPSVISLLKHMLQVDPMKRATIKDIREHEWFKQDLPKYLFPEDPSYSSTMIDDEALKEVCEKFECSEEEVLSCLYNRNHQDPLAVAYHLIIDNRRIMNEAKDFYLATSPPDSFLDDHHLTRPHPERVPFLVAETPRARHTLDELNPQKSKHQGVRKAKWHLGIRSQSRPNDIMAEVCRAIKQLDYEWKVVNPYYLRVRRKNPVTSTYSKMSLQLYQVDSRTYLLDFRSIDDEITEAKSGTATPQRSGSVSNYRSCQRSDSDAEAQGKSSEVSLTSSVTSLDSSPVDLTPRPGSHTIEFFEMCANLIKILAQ

COc1cc(N(C)c2ccnc3ccc(C(F)(F)F)cc23)cc(OC)c1OC showed a % binding [1] of 100%.
Molecule Cc1cc(C)cc([C@H]2c3cc(C)ccc3NC(=O)CN2C(=O)c2ccc(Br)s2)c1 has a % of activity ([2]; at 1 µM) of 102% and a % of activity ([2]; at 10 µM) of 102%.
O=C(NOC[C@H](O)CO)c1ccc(F)c(F)c1Nc1ccc(I)cc1F was tested, and the % of control [3] was 78%.
C=CC(=O)Nc1cccc(C(=O)Nc2ccc(Nc3cc(-c4[nH]c(SC)nc4C)ccn3)cc2)c1 showed a % of control ([4]; at 1 µM) of 85% and a % of control ([4]; at 5 µM) of 89%.
With O[C@H]1CC[C@H](Nc2ncc3nc(Nc4c(F)cc(F)cc4F)n([C@H]4CCOC4)c3n2)CC1 the % of control [5] was 70%.
CC[C@@H]1[C@H](F)C(=O)N[C@@H]1COc1nccc2cc(C(N)=O)c(OC)cc12 [ZIMLOVISERTIB] gave a % of inhibition [6] of 4.2%.
For CN(C)CCOc1ccc(-c2nc(-c3ccncc3)c(-c3ccc4c(c3)CC/C4=N\O)[nH]2)cc1, the % of control [7] was 75%.
